Laboratory results reported in the NIST ThermoML archive (doi:10.1021/je0302248).
± gives the expanded uncertainty stated by the source.

Conditions: Liquid

| SMILES | vapor or sublimation pressure (319.5 K) | vapor or sublimation pressure (336.5 K) | vapor or sublimation pressure (393.4 K) | vapor or sublimation pressure (419.2 K) |
| --- | --- | --- | --- | --- |
| CCO [ethanol] | 24 ± 7.2 kPa | 53.32 ± 16 kPa |  |  |
| CCO[Si](OCC)(OCC)OCC [tetraethoxysilane] |  |  | 24 ± 7.2 kPa | 53.32 ± 16 kPa |
